Data from patent US10597366B2, “Aryl ethers and uses thereof” (Peloton Therapeutics, Inc., priority 2013, dated 2020).
Read-outs that look alike come from different tables or passages of the source.

System: 786-O-Hif-Luc cells (luciferase gene driven by multiple HIF responsive elements)
Assay: Luciferase Assay
Assay type: cell-based
Settings: 24 h, read-out: Mean Luciferease EC50
Description: A pool of infected cells were then selected against 2 μg/mL of puromycin (P8833, Sigma) for 10 days followed by limited dilution to select single clones.
Each concentration was tested in triplicate. After about 24 hours, luciferase activity was determined using ONE-Glo Luciferase Assay Reagent (E6110, Promega) following the manufacturer's recommended procedure. EC50 were calculated by using Dotmatics software.

[1] = 786-O-Hif-Luc cells, about 24 hours

Compound | EC50 [1] | EC50
N#Cc1cc(F)cc(Oc2ccc(S(=O)(=O)C(F)(F)F)c3c2[C@@H](N)C[C@H]3O)c1 (relative stereo) [Compound 279, 3-((cis-3-amino-1-hydroxy-7-((trifluoromethyl)sulfonyl)-2,3-dihydro-1H-inden-4-yl)oxy)-5-fluorobenzonitrile] | 5900 nM | 
N#CN=S(=O)(CF)c1ccc(Oc2cc(F)cc(C#N)c2)c2c1[C@H](O)C(F)(F)C2 (single isomer, unassigned) [Compound 285] | 100 nM | 
O=S(=O)(c1ccc(Oc2cncc(Cl)c2)c2c1[C@H](O)CC2)C(F)F [Compound 3, (R)-4-((5-chloropyridin-3-yl)oxy)-7-((difluoromethyl)sulfonyl)-2,3-dihydro-1H-inden-1-ol] | 960 nM | 
O=S(=O)(c1ccc(Oc2cncc(F)c2)c2c1[C@H](O)CC2)C(F)F [Compound 5, (R)-7-((difluoromethyl)sulfonyl)-4-((5-fluoropyridin-3-yl)oxy)-2,3-dihydro-1H-inden-1-ol] | 420 nM | 
COc1cc(F)cc(Oc2ccc(S(=O)(=O)C(F)F)c3c2CC[C@H]3O)c1 [Compound 6, (R)-7-((difluoromethyl)sulfonyl)-4-(3-fluoro-5-methoxyphenoxy)-2,3-dihydro-1H-inden-1-ol] | 75 nM | 
N#Cc1cc(F)cc(Oc2ccc(S(=O)(=O)C(F)F)c3c2CC(F)(F)C3O)c1 (stereo not shown) [Compound 11, 3-[7-(difluoromethylsulfonyl)-2,2-difluoro-1-hydroxy-indan-4-yl]oxy-5-fluoro-benzonitrile] | 16 nM | 
O=C1CCc2c(Oc3cc(F)cc(Cl)c3)ccc(S(=O)(=O)C(F)F)c21 [Compound 18, 4-(3-chloro-5-fluorophenoxy)-7-((difluoromethyl)sulfonyl)-2,3-dihydro-1H-inden-1-one] | 2670 nM | 
O=S(=O)(c1ccc(Oc2cc(F)cc(F)c2)c2c1CCC2)C(F)F [Compound 20, 4-((Difluoromethyl)sulfonyl)-7-(3,5-difluorophenoxy)-2,3-dihydro-1H-indene] | 1910 nM | 
O=S(=O)(c1ccc(Oc2cc(F)cc(F)c2)c2c1C=CC2)C(F)F [Compound 21, 4-((Difluoromethyl)sulfonyl)-7-(3,5-difluorophenoxy)-1H-indene] | 1540 nM | 
O=S(=O)(c1ccc(Oc2cc(F)cc(F)c2)c2c1CC(O)C2)C(F)F (stereo not shown) [Compound 22, 4-((Difluoromethyl)sulfonyl)-7-(3,5-difluorophenoxy)-2,3-dihydro-1H-inden-2-ol] | 1290 nM | 
O=S(=O)(c1ccc(Oc2cncc(Cl)c2)c2c1[C@H](O)C(F)(F)C2)C(F)F [Compound 25, (S)-4-((5-chloropyridin-3-yl)oxy)-7-((difluoromethyl)sulfonyl)-2,2-difluoro-2,3-dihydro-1H-inden-1-ol] | 18 nM | 
O=S(=O)(c1ccc(Oc2ccc(F)c(Cl)c2)c2c1[C@H](O)C(F)(F)C2)C(F)F [Compound 26, (S)-4-(3-Chloro-4-fluorophenoxy)-7-((difluoromethyl)sulfonyl)-2,2-difluoro-2,3-dihydro-1H-inden-1-ol] | 68 nM | 
N#Cc1cncc(Oc2ccc(S(=O)(=O)C(F)F)c3c2CC(F)(F)[C@H]3O)c1 [Compound 27, (S)-5-((7-((Difluoromethyl)sulfonyl)-2,2-difluoro-1-hydroxy-2,3-dihydro-1H-inden-4-yl)oxy)nicotinonitrile] | 160 nM | 
Cc1c(S(=O)(=O)C(F)F)ccc(Oc2cc(F)cc(Cl)c2)c1C#N [Compound 32, 6-(3-Chloro-5-fluorophenoxy)-3-((difluoromethyl)sulfonyl)-2-methylbenzonitrile] | 1900 nM | 
Cc1c(S(=O)(=O)C(F)F)ccc(Oc2cc(F)cc(C#N)c2)c1C#N [Compound 33, 6-(3-Cyano-5-fluorophenoxy)-3-((difluoromethyl)sulfonyl)-2-methylbenzonitrile] | 2900 nM | 
N#Cc1c(Oc2cc(F)cc(Cl)c2)ccc(S(=O)(=O)C(F)F)c1CO [Compound 35, 6-(3-Chloro-5-fluorophenoxy)-3-((difluoromethyl)sulfonyl)-2-(hydroxymethyl)benzonitrile] | > 20000 nM | 
N#Cc1c(S(=O)(=O)C(F)F)ccc(Oc2cc(F)cc(Cl)c2)c1Cl [Compound 38, 2-Chloro-3-(3-chloro-5-fluorophenoxy)-6-((difluoromethyl)sulfonyl)benzonitrile] | 390 nM | 
N#Cc1cc(F)cc(Oc2ccc(S(=O)(=O)C(F)F)c(C#N)c2Cl)c1 [Compound 39, 2-Chloro-3-(3-cyano-5-fluorophenoxy)-6-((difluoromethyl)sulfonyl)benzonitrile] | 600 nM | 
N#Cc1cccc(Oc2ccc(S(=O)(=O)C(F)F)c(C#N)c2Cl)c1 [Compound 40, 2-Chloro-3-(3-cyanophenoxy)-6-((difluoromethyl)sulfonyl)benzonitrile] | 1200 nM | 
N#Cc1cc(F)cc(Oc2ccc(S(=O)(=O)C(F)F)c(CO)c2Cl)c1 [Compound 42, 3-(2-Chloro-4-((difluoromethyl)sulfonyl)-3-(hydroxymethyl)phenoxy)-5-fluorobenzonitrile] | 450 nM | 

Compound | EC50 [1] | EC50
N#Cc1cccc(Oc2ccc(S(=O)(=O)C(F)F)c(CO)c2Cl)c1 [Compound 43, 3-(2-Chloro-4-((difluoromethyl)sulfonyl)-3-(hydroxymethyl)phenoxy)benzonitrile] | 790 nM | 
O=S(=O)(c1ccc(Oc2cc(F)cc(Cl)c2)c(Cl)c1CCl)C(F)F [Compound 46, 2-Chloro-1-(3-chloro-5-fluorophenoxy)-3-(chloromethyl)-4-((difluoromethyl)sulfonyl)benzene] | 8100 nM | 
Cc1c(S(C)(=O)=O)ccc(Oc2cc(F)cc(Cl)c2)c1C#N [Compound 50, 6-(3-Chloro-5-fluorophenoxy)-2-methyl-3-(methylsulfonyl)benzonitrile] | 1600 nM | 
Cc1c(S(C)(=O)=O)ccc(Oc2cc(F)cc(F)c2)c1C#N [Compound 52, 6-(3,5-Difluorophenoxy)-2-methyl-3-(methylsulfonyl)benzonitrile] | 1000 nM | 
Cc1c(S(C)(=O)=O)ccc(Oc2cc(F)cc(Cl)c2)c1C(F)F [Compound 53, 1-(3-Chloro-5-fluorophenoxy)-2-(difluoromethyl)-3-methyl-4-(methylsulfonyl)benzene] | 3300 nM | 
CS(=O)(=O)c1ccc(Oc2cc(F)cc(Cl)c2)c(C(F)F)c1CO [Compound 54, (3-(3-Chloro-5-fluorophenoxy)-2-(difluoromethyl)-6-(methylsulfonyl)phenyl)methanol] | 350 nM | 
O=S(=O)(c1ccc(Oc2cc(F)cc(Cl)c2)c2c1[C@H](O)CC2)C(F)(F)F [Compound 56, (R)-4-(3-Chloro-5-fluorophenoxy)-7-((trifluoromethyl)sulfonyl)-2,3-dihydro-1H-inden-1-ol] | 68 nM | 
N#Cc1cc(F)cc(Oc2ccc(S(=O)(=O)C(F)(F)F)c3c2CC[C@H]3O)c1 [Compound 57, (R)-3-Fluoro-5-((1-hydroxy-7-((trifluoromethyl)sulfonyl)-2,3-dihydro-1H-inden-4-yl)oxy)benzonitrile] |  | 110 nM
O[C@@H]1CCc2c(Oc3cc(F)cc(F)c3)ccc(C(F)(F)F)c21 [Compound 58, (R)-4-(3,5-Difluorophenoxy)-7-(trifluoromethyl)-2,3-dihydro-1H-inden-1-ol] | 160 nM | 
O=S(=O)(CF)c1ccc(Oc2cc(F)cc(F)c2)c2c1C(O)CC2 [Compound 59, (R)-4-(3,5-Difluorophenoxy)-7-((fluoromethyl)sulfonyl)-2,3-dihydro-1H-inden-1-ol] | 90 nM | 
O=S(=O)(CF)c1ccc(Oc2cc(F)cc(Cl)c2)c2c1[C@H](O)CC2 [Compound 61, (R)-4-(3-Chloro-5-fluorophenoxy)-7-((fluoromethyl)sulfonyl)-2,3-dihydro-1H-inden-1-ol] | 110 nM | 
N#Cc1cc(F)cc(Oc2ccc(S(=O)(=O)CF)c3c2CC[C@H]3O)c1 [Compound 62, (R)-3-Fluoro-5-((7-((fluoromethyl)sulfonyl)-1-hydroxy-2,3-dihydro-1H-inden-4-yl)oxy)benzonitrile] | 180 nM | 
O=S(=O)(CF)c1ccc(Oc2cc(F)cc(Cl)c2)c2c1[C@H](O)C(F)(F)C2 [Compound 65, (S)-4-(3-Chloro-5-fluorophenoxy)-2,2-difluoro-7-((fluoromethyl)sulfonyl)-2,3-dihydro-1H-inden-1-ol] | 6 nM | 
N=S(=O)(c1ccc(Oc2cc(F)cc(Cl)c2)c(Br)c1Cl)C(F)(F)F (stereo not shown) [Compound 75, (3-bromo-2-chloro-4-(3-chloro-5-fluorophenoxy)phenyl)(imino)(trifluoromethyl)-λ^6-sulfanone] | 8800 nM | 
N#Cc1cccc(Oc2ccc(S(=O)(=O)C(F)F)c(CO)c2Br)c1 [Compound 81, 3-(2-Bromo-4-((difluoromethyl)sulfonyl)-3-(hydroxymethyl)phenoxy)benzonitrile] | 850 nM | 
NCc1c(S(=O)(=O)C(F)F)ccc(Oc2cc(F)cc(Cl)c2)c1Br [Compound 85, (2-Bromo-3-(3-chloro-5-fluorophenoxy)-6-((difluoromethyl)sulfonyl)phenyl)methanamine] | 11800 nM | 
CS(=O)(=O)c1ccc(Oc2cc(F)cc(Cl)c2)c2c1C(O)CC2 (stereo not shown) [Compound 90, 4-(3-Chloro-5-fluorophenoxy)-7-(methylsulfonyl)-2,3-dihydro-1H-inden-1-ol] | 850 nM | 
CCS(=O)(=O)c1ccc(Oc2cc(F)cc(Cl)c2)c2c1C(O)CC2 (stereo not shown) [Compound 91, 4-(3-Chloro-5-fluorophenoxy)-7-(ethylsulfonyl)-2,3-dihydro-1H-inden-1-ol] | 2300 nM | 
CS(=O)(=O)c1ccc(Oc2cc(F)cc(Cl)c2)c(C(F)F)c1C#N [Compound 92, 3-(3-Chloro-5-fluorophenoxy)-2-(difluoromethyl)-6-(methylsulfonyl)benzonitrile] | 490 nM | 
CS(=O)(=O)c1ccc(Oc2cc(F)cc(F)c2)c(C(F)F)c1C#N [Compound 93, 2-(Difluoromethyl)-3-(3,5-difluorophenoxy)-6-(methylsulfonyl)benzonitrile] | 680 nM | 
